The values that follow come from ChEMBL document CHEMBL2057202, “Investigation of substituted 6-aminohexanoates as skin penetration enhancers” (Bioorg Med Chem, 2012).

The nature of data set [1]: Lipophilicity, log K of the compound by RP-HPLC analysis. It is filed as physicochemical.
A further data set has as its system SK-N-MC. In words: Antiproliferative activity against human SK-N-MC cells after 72 hrs by MTT assay. It is filed as cell-based.
A short description of data set [2]: Potentiation of theophylline transdermal permeation in pig ear skin assessed as enhancement ratio at 20 mg after 24 hrs by Franz diffusion cell method. It is filed as ADME, Sus scrofa.

By IC50 is commonly meant the point on the concentration scale where inhibition reaches its midpoint. For `CCCCCCCOC(=O)C(CCCCN1C(=O)CCC1=O)N1CCCCCC1=O` (stereo unspecified), in data set [1], the “log K” value was determined as 0.0658. In the data set on SK-N-MC, the IC50 is > 6.25 µM.
Turning to `CCCCCCCCCOC(=O)C(CCCCN1C(=O)CCC1=O)N1CCCCCC1=O` (stereo unspecified), the Ratio in data set [2] is given as 1.87. Further, the “log K” value in data set [1] came to 0.4095. In addition, the IC50 in the data set with SK-N-MC is > 6.25 µM.
The like results for `CCCCCCCCCOC(=O)CCCCCN1C(=O)CCC1=O` were, in that order, 3.14, 0.4901 and > 6.25 µM.
The like results for `CCCCCCCCCCCOC(=O)C(CCCCN1C(=O)CCC1=O)N1CCCCCC1=O` (stereo unspecified) were, in that order, 1.81, 0.7462 and > 6.25 µM.
The like results for `CCCCCCCCCCCCOC(=O)C(CCCCN1C(=O)CCC1=O)N1CCCCCC1=O` (stereo unspecified) were, in that order, 2.48, 0.9081 and > 6.25 µM.
Turning to `CCCCCCCOC(=O)CCCCCN1C(=O)CCC1=O`, in data set [2], the Ratio turned out to be 2.64. Besides, the “log K” value in data set [1] is 0.15. In addition, in the data set with SK-N-MC, the IC50 was > 6.25 µM.
The like results for `CCCCCCCCOC(=O)C(CCCCN1C(=O)CCC1=O)N1CCCCCC1=O` (stereo unspecified) were, in that order, 2.24, 0.2462 and > 6.25 µM.
Consider `CCCCCCCCCCCOC(=O)CCCCCN1C(=O)CCC1=O`, for which the Ratio in data set [2] is 3.51. Also, in data set [1], the “log K” value was 0.8368. Besides, in the data set with SK-N-MC, the IC50 is > 6.25 µM.
In the case of `CCCCCCCCCCOC(=O)C(CCCCN1C(=O)CCC1=O)N1CCCCCC1=O` (stereo unspecified), in data set [1], the “log K” value is 0.6158. The IC50 with SK-N-MC is > 6.25 µM.
Consider `CCCCCCOC(=O)CCCCCN1C(=O)CCC1=O`, for which the Ratio in data set [2] was 2.71. Besides, in data set [1], the “log K” value is listed as -0.0201. Also, in the data set on SK-N-MC, the IC50 was > 6.25 µM.
Take `CCCCCCCC/C=C\CCCCCCCC(=O)O` [OLEIC ACID]: in data set [2], the Ratio stood at 1.13.
Consider `CCCCCCOC(=O)C(CCCCN1C(=O)CCC1=O)N1CCCCCC1=O` (stereo unspecified), for which the Ratio in data set [2] was found to be 1.93. Moreover, in data set [1], the “log K” value is listed as -0.0764. Moreover, the half-maximal inhibitory concentration (IC50) with SK-N-MC is > 6.25 µM.
For `CCCCCCCCOC(=O)CCCCCN1C(=O)CCC1=O`, in that order: 2.55, 0.3239 and > 6.25 µM.
For `CCCCCCCCCCCCOC(=O)CCCCCN1C(=O)CCC1=O`, in that order: 2.93, 1.0091 and > 6.25 µM.
For `CCCCCCCCCCOC(=O)CCCCCN1C(=O)CCC1=O`, in that order: 3.54, 0.6548 and > 6.25 µM.
